Laboratory results published in patent publication US12331041B2, “GLP-1 receptor agonists and uses thereof” (Pfizer Inc., priority 2018, dated 2025).
pEC50: −log10 of the molar value. Where a name gives a salt, the structure may show the parent alone.

Tests used:
human GLP-1R [1] = target: T1, human GLP-1R (Homo sapiens, UniProt P43220, G168S); assay: CHO GLP-1R Clone H6 - Assay 1 (HTRF cAMP agonist assay); format: cell-based; conditions: for pEC50: CHO Clone H6, high GLP-1R density, cAMP, geometric mean; for Emax: CHO Clone H6, relative to saturating full agonist GLP-1 7-36 (1 μM), arithmetic mean
T1 construct: expressed in transfected cells
Outline: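 CHO Clone H6 cells stably expressing human GLP-1R (G168S) were plated 48 h, then given compound for 30 min at 37° C in HBSS/0.1% BSA/HEPES with 100 μM IBMX and 1% DMSO. cAMP was measured by HTRF against a standard curve.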

human GLP-1R [2] = target: T2, human GLP-1R (Homo sapiens, UniProt P43220, L260F); assay: CHO GLP-1R Clone C6 - Assay 2 (HTRF cAMP agonist assay); format: cell-based; conditions: for pEC50: CHO clone C6, low GLP-1R density, cAMP, geometric mean; for Emax: CHO clone C6, relative to saturating full agonist GLP-1 (1 μM), arithmetic mean
T2 construct: expressed in transfected cells; host or cells: CHO Flp-In T-REx, clonal line C6 (pcDNA5-FRT-TO)
T2 sequence (P43220 24-463 L260F): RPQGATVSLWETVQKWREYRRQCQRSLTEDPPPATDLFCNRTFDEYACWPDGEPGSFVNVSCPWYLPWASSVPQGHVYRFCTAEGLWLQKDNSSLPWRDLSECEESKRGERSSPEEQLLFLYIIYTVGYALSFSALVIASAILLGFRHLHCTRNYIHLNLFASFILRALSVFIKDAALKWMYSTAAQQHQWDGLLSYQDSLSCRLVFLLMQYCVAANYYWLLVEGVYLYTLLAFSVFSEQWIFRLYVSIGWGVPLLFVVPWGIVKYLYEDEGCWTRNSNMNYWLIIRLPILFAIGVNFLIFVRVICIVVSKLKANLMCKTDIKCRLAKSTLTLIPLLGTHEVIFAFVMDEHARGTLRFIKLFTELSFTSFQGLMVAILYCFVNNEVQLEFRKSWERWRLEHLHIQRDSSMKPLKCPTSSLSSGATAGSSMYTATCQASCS

T1 sequence (P43220 24-463 G168S): as the sequence (P43220 24-463 L260F) above, with G145S, F237L counted along it

Compound	pEC50 (human GLP-1R [1])	Emax (human GLP-1R [1])	pEC50 (human GLP-1R [2])	Emax (human GLP-1R [2])
O=C(O)c1ccc2nc(C3CC34CCN(c3nc(OCc5ccc(Cl)cc5F)ncc3F)CC4)n(Cc3cocn3)c2c1 (stereo not drawn) [Example 43, 2-(6-{2-[(4-chloro-2-fluorobenzyl)oxy]-5-fluoropyrimidin-4-yl}-6-azaspiro[2.5]oct-1-yl)-1-(1,3-oxazol-4-ylmethyl)-1H-benzimidazole-6-carboxylic acid, trifluoroacetate salt, from P7]	7.89	75%	6.60	70%
O=C(O)c1ccc2nc(C3CC34CCN(c3nc(OCc5ccc(Cl)cc5F)ncc3F)CC4)n(Cc3cnco3)c2c1 (stereo not drawn) [Example 45, 2-(6-{2-[(4-chloro-2-fluorobenzyl)oxy]-5-fluoropyrimidin-4-yl}-6-azaspiro[2.5]oct-1-yl)-1-(1,3-oxazol-5-ylmethyl)-1H-benzimidazole-6-carboxylic acid, trifluoroacetate salt, from P7]	7.92	72%	6.64	83%
Cn1cnnc1Cn1c(C2CC23CCN(c2nc(OCc4ccc(Cl)cc4F)c(F)cc2F)CC3)nc2ccc(C(=O)O)cc21 (stereo not drawn) [Example 60, 2-(6-{6-[(4-chloro-2-fluorobenzyl)oxy]-3,5-difluoropyridin-2-yl}-6-azaspiro[2.5]oct-1-yl)-1-[(4-methyl-4H-1,2,4-triazol-3-yl)methyl]-1H-benzimidazole-6-carboxylic acid, trifluoroacetate salt]	8.30	91%	6.96	110%
N#Cc1ccc(COc2nc(N3CCC4(CC3)CC4c3nc4ccc(C(=O)O)cc4n3Cc3ncco3)c(F)cc2F)c(F)c1 (stereo not drawn) [Example 61, 2-(6-{6-[(4-cyano-2-fluorobenzyl)oxy]-3,5-difluoropyridin-2-yl}-6-azaspiro[2.5]oct-1-yl)-1-(1,3-oxazol-2-ylmethyl)-1H-benzimidazole-6-carboxylic acid, trifluoroacetate salt]	8.96	68%	7.59	74%
O=C(O)c1ccc2nc(CN3CCC(c4ccnc(OCc5ccc(Cl)cc5F)n4)CC3)n(C[C@@H]3CCO3)c2c1 [Example 62, 2-[(4-{2-[(4-Chloro-2-fluorobenzyl)oxy]pyrimidin-4-yl}piperidin-1-yl)methyl]-1-[(2S)-oxetan-2-ylmethyl]-1H-benzimidazole-6-carboxylic acid]	8.36	86%	6.96	98%
CCn1nncc1Cn1c(CN2CCC(c3ccnc(OCc4ccc(Cl)cc4F)n3)CC2)nc2ccc(C(=O)O)cc21 [Example 64, 2-[(4-{2-[(4-chloro-2-fluorobenzyl)oxy]pyrimidin-4-yl}piperidin-1-yl)methyl]-1-[(1-ethyl-1H-1,2,3-triazol-5-yl)methyl]-1H-benzimidazole-6-carboxylic acid]	7.62	96%	7.00	100%
COCCn1c(CN2CCC(c3ccnc(OCc4ccc(Cl)cc4F)n3)CC2)nc2ccc(C(=O)O)cc21 [Example 65, 2-[(4-{2-[(4-chloro-2-fluorobenzyl)oxy]pyrimidin-4-yl}piperidin-1-yl)methyl]-1-(2-methoxyethyl)-1H-benzimidazole-6-carboxylic acid, hydrochloride salt]	7.06	85%	5.77	110%
O=C(O)c1ccc2nc(CN3CCC(c4ccnc(OCc5ccc(Cl)cc5F)n4)CC3)n(Cc3ncco3)c2c1 [Example 68, 2-[(4-{2-[(4-chloro-2-fluorobenzyl)oxy]pyrimidin-4-yl}piperidin-1-yl)methyl]-1-(1,3-oxazol-2-ylmethyl)-1H-benzimidazole-6-carboxylic acid, trifluoroacetate salt]	8.08	77%	6.51	92%
O=C(O)c1ccc2nc(CN3CCN(c4nc(OCc5ccc(Cl)cc5F)ncc4F)CC3)n(C[C@@H]3CCO3)c2c1 [Example 72, 2-[(4-{2-[(4-chloro-2-fluorobenzyl)oxy]-5-fluoropyrimidin-4-yl}piperazin-1-yl)methyl]-1-[(2S)-oxetan-2-ylmethyl]-1H-benzimidazole-6-carboxylic acid]	8.22	96%	6.92	130%
C[C@H]1CN(c2ccnc(OCc3ccc(Cl)cc3F)n2)CCN1Cc1nc2ccc(C(=O)O)cc2n1C[C@@H]1CCO1 [Example 73, 2-{[(2S)-4-{2-[(4-chloro-2-fluorobenzyl)oxy]pyrimidin-4-yl}-2-methylpiperazin-1-yl]methyl}-1-[(2S)-oxetan-2-ylmethyl]-1H-benzimidazole-6-carboxylic acid]	8.62	84%	7.05	100%

The remaining molecules from weak to strong by pEC50 (human GLP-1R [1]), led by results:

pEC50 (human GLP-1R [1])	Emax (human GLP-1R [1])	pEC50 (human GLP-1R [2])	Emax (human GLP-1R [2])	Compound
6.30	86%	4.96	96%	COCCn1c(CN2CCN(c3ccnc(OCc4ccc(Cl)cc4F)n3)[C@H](C)C2)nc2ccc(C(=O)O)cc21 [Example 74, 2-{[(3R)-4-{2-[(4-chloro-2-fluorobenzyl)oxy]pyrimidin-4-yl}-3-methylpiperazin-1-yl]methyl}-1-(2-methoxyethyl)-1H-benzimidazole-6-carboxylic acid, trifluoroacetate salt]
8.05	82%	6.80	90%	C[C@H]1CN(c2nc(OCc3ccc(Cl)cc3F)ncc2F)CCN1Cc1nc2ccc(C(=O)O)cc2n1C[C@@H]1CCCO1 [Example 71, 2-{[(2S)-4-{2-[(4-chloro-2-fluorobenzyl)oxy]-5-fluoropyrimidin-4-yl}-2-methylpiperazin-1-yl]methyl}-1-[(2S)-tetrahydrofuran-2-ylmethyl]-1H-benzimidazole-6-carboxylic acid]
8.17	80%	6.92	85%	Cn1c(C2CC23CCN(c2nc(OCc4ccc(C#N)cc4F)c(F)cc2F)CC3)nc2ccc(C(=O)O)cc21 (stereo not drawn) [Example 59, 2-(6-{6-[(4-cyano-2-fluorobenzyl)oxy]-3,5-difluoropyridin-2-yl}-6-azaspiro[2.5]oct-1-yl)-1-methyl-1H-benzimidazole-6-carboxylic acid, trifluoroacetate salt]
8.48	90%	7.28	120%	O=C(O)c1ccc2nc(CN3CCC(c4ccnc(OCc5ccc(Cl)cc5F)n4)CC3)n(C[C@@H]3CCO3)c2n1 [Example 67, ammonium 2-[(4-{2-[(4-chloro-2-fluorobenzyl)oxy]pyrimidin-4-yl}piperidin-l-yl)methyl]-3-[(2S)-oxetan-2-ylmethyl]-3H-imidazo[4,5-b]pyridine-5-carboxylate]
9.04	89%	7.74	110%	C[C@H]1CN(c2nc(OCc3ccc(Cl)cc3F)ncc2F)CCN1Cc1nc2ccc(C(=O)O)cc2n1C[C@@H]1CCO1 [Example 69, Ammonium 2-{[(2S)-4-{2-[(4-chloro-2-fluorobenzyl)oxy]-5-fluoropyrimidin-4-yl}-2-methylpiperazin-1-yl]methyl}-1-[(2S)-oxetan-2-ylmethyl]-1H-benzimidazole-6-carboxylate]
